Source: PubChem BioAssay (NCI)
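Method: 48-hour compound exposure of cells in 96-well plates, five concentrations, linear interpolation of endpoints. TGI is the concentration that stops growth completely.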

Key:
Assay in all cases: NCI-60 cell line screen, 48 h
UO-31 renal = test system: UO-31 renal
UACC-62 melanoma = test system: UACC-62 melanoma
IGROV1 ovarian = test system: IGROV1 ovarian
ACHN renal = test system: ACHN renal
MOLT-4 leukemia = test system: MOLT-4 leukemia
SK-MEL-2 melanoma = test system: SK-MEL-2 melanoma
LOX IMVI melanoma = test system: LOX IMVI melanoma
CAKI-1 renal = test system: CAKI-1 renal
HCT-15 colon = test system: HCT-15 colon
MDA-MB-231 breast = test system: MDA-MB-231 breast
PC-3 prostate = test system: PC-3 prostate
786-0 renal = test system: 786-0 renal

Row | Structure (SMILES) | TGI (UO-31 renal) | TGI (UACC-62 melanoma) | TGI (IGROV1 ovarian) | TGI (ACHN renal) | TGI (MOLT-4 leukemia) | TGI (SK-MEL-2 melanoma) | TGI (LOX IMVI melanoma) | TGI (CAKI-1 renal) | TGI (HCT-15 colon) | TGI (MDA-MB-231 breast) | TGI (PC-3 prostate) | TGI (786-0 renal)
1 | N#Cc1c(OCCF)c2ccccc2n2c1nc1ccccc12 | > 100 µM | > 100 µM | > 100 µM | > 100 µM | > 100 µM | > 100 µM | > 100 µM | > 100 µM | > 100 µM | > 100 µM | > 100 µM | 
2 | C/C(=N/NC(=S)Nc1cccc(C)c1)c1ccccn1 | 6 µM | 2.92 µM | 4.68 µM | 6.83 µM |  | 4.42 µM | 9.93 µM | 9.07 µM | 2.24 µM | 2.45 µM | 7.68 µM | 4.26 µM
3 | C=CCCCC12CCCc3cccc(c31)NC2=O (centres undefined) | 87.6 µM | 31.3 µM | 33.8 µM | 86.4 µM | 55.1 µM | 55.5 µM | 62.3 µM |  |  |  |  | 
4 | O=C1C(Cl)N(c2ccccc2)C1c1c[nH]c2ccccc12 (centres undefined) | > 100 µM | > 100 µM | > 100 µM |  | > 100 µM | > 100 µM |  |  |  |  |  | 
5 | O=C(OCc1ccccc1)OOC(=O)OCc1ccccc1 | > 100 µM | > 100 µM | > 100 µM | > 100 µM | > 100 µM | > 100 µM |  | > 100 µM | > 100 µM |  |  | 
6 | CO/N=C1/c2sccc2[C@H](NC(=O)CNC(=O)OC(C)(C)C)[C@@H]1O | > 100 µM | > 100 µM | > 100 µM |  | > 100 µM | > 100 µM | > 100 µM | > 100 µM | > 100 µM | > 100 µM | > 100 µM | 
7 | CC(C)CCNC(=O)c1ccc(CNC(=O)/C=C/c2ccc(OCc3ccccc3)cc2)cc1 | > 100 µM | > 100 µM |  | > 100 µM | > 100 µM | > 100 µM | > 100 µM | > 100 µM | > 100 µM | > 100 µM | > 100 µM | > 100 µM
8 | COC(=O)C1CC(C=[N+](C)C)=C(SC)N1 (centres undefined) | > 100 µM | > 100 µM | > 100 µM | > 100 µM | > 100 µM | > 100 µM |  | > 100 µM | > 100 µM | > 100 µM | > 100 µM | > 100 µM
9 | O=C(CCc1ccc(O)cc1)c1c(O)cc(O)cc1OC1OC(CO)C(O)C(O)C1O (centres undefined) | > 100 µM | > 100 µM | > 100 µM | > 100 µM |  | > 100 µM | > 100 µM | > 100 µM | > 100 µM |  | > 100 µM | > 100 µM
10 | CC1=CC=CC(C)(C)CC1(O[Si](C)(C)C)C(F)(F)F (centres undefined) | > 100 µM | > 100 µM | > 100 µM | > 100 µM |  | > 100 µM | > 100 µM | > 100 µM | > 100 µM | > 100 µM | > 100 µM | > 100 µM
11 | CC(C)=CC1C(C(=O)O)C1(C)C (centres undefined) | > 750 µM | > 750 µM | > 750 µM |  | > 750 µM | > 750 µM | > 750 µM | > 750 µM | > 750 µM |  |  | 
12 | N#CSCc1cccc(Nc2cc(=O)[nH]c(=O)[nH]2)c1 | > 100 µM | > 100 µM | > 100 µM | > 100 µM |  | > 100 µM | > 100 µM | > 100 µM | > 100 µM | > 100 µM | > 100 µM | > 100 µM
13 | CC(C)c1c(P(=O)(c2ccccc2)c2ccccc2)n(C)c2ccccc12 | > 100 µM |  |  | > 100 µM | > 100 µM | > 100 µM | > 100 µM |  | > 100 µM | > 100 µM | > 100 µM | > 100 µM
14 | COC(c1ccc(C(C)(C)C)cc1)(c1ccc(C(C)(C)C)cc1)c1cc(C(O)(c2cc(C(OC)(c3ccc(C(C)(C)C)cc3)c3ccc(C(C)(C)C)cc3)c(C)cc2C)c2cc(C(OC)(c3ccc(C(C)(C)C)cc3)c3ccc(C(C)(C)C)cc3)c(C)cc2C)c(C)cc1C | > 100 µM | > 100 µM | > 100 µM |  | > 100 µM | > 100 µM | > 100 µM | > 100 µM | > 100 µM | > 100 µM | > 100 µM | 
15 | Cc1nc2cc(C(F)(F)F)ccc2[nH]c1=O | > 100 µM | > 100 µM |  | > 100 µM | > 100 µM | > 100 µM | > 100 µM | > 100 µM | > 100 µM | > 100 µM | > 100 µM | > 100 µM
16 | C[C@@H]1C[C@H](O)[C@]2(O)O[C@@H]3C[C@@]4(C=O)[C@@H](CC=C5[C@@H]4CC[C@]4(C)[C@@H](C6=CC(=O)OC6)CC[C@]54O)C[C@H]3O[C@@H]2O1 | 0.153 µM |  |  | 0.0821 µM |  |  |  | 0.0722 µM | 0.194 µM | 2.65 µM |  | 
17 | O=C1/C(=C/c2ccc(F)cc2)CNC/C1=C\c1ccc(F)cc1 | 3.3 µM |  | 2.52 µM | 3.18 µM | > 40.5 µM | 29 µM | 2.33 µM | 3.4 µM | 1.97 µM | 13.5 µM | 4.41 µM | 1.45 µM
18 | O=C(O[C@H](/C=C/c1ccccc1)P1(=O)N(Cc2ccccc2)[C@@H]2CCCC[C@H]2N1Cc1ccccc1)c1ccccc1 | > 100 µM | 40 µM | 15.8 µM | > 100 µM |  | 5.53 µM | 11.8 µM | 6.93 µM | 11.1 µM | 21 µM | > 100 µM | 42 µM
19 | Brc1ccc2c3c1[C@@H]1O[C@@H]1c1cccc(c1-3)[C@@H]1O[C@H]21 | 43.8 µM | 35.4 µM |  | 67.1 µM | > 100 µM | > 71.5 µM | 6.86 µM | 26.4 µM | 49.8 µM | 65.8 µM | > 71.7 µM | 51.1 µM
20 | O=c1c2cc(I)ccc2[nH]c(=S)n1Cc1ccccc1 | 1.83 µM | > 100 µM | 30.3 µM | > 100 µM | > 100 µM | 56 µM | > 100 µM |  | > 100 µM | 66.3 µM | > 100 µM | 63 µM
21 | CC(=O)Nc1ccc(Cl)c(Cl)c1 | > 100 µM | > 100 µM | > 100 µM | > 100 µM | > 100 µM |  | > 100 µM |  | > 100 µM |  |  | > 100 µM
22 | COC1C=CC23c4cc5c(cc4C(O)OC2CN(C)C3C1)OCO5 (centres undefined) | 9.3 µM | 58.8 µM | 22.3 µM | 10.1 µM | 5.32 µM |  | 6.85 µM | 24.8 µM |  |  |  | 11 µM
